According to paper PMC6136660 (Steroids, 2018):

Columns and labels:
[1] = Clinical safety (treatment-emergent adverse events), SAD; type: in vivo, human
Procedure: In the SAD part of the study, 7 cohorts were to be enrolled. Eight subjects were assigned to each of Cohorts 1 to 5 and 7 and received a single oral dose of vamorolone (planned as 0.1 mg/kg, 0.3 mg/kg, 1.0 mg/kg, 3.0 mg/kg, 8.0 mg/kg, and 20.0 mg/kg, respectively) or placebo under fasted conditions. Six subjects were assigned to Cohort 6 and were administered a single oral dose of 8.0 mg/kg vamorolone within 30 min of beginning a high fat/high calorie meal.
Subjects in Cohorts 1 through 5 and 7 were randomized to receive vamorolone or placebo in a 3:1 ratio (6 subjects received vamorolone, and 2 subjects received placebo) sequentially. In Cohort 1, 3 sentinel subjects were administered vamorolone or placebo in a 2:1 ratio. Following a review of sentinel safety and tolerability data (including reported adverse events [AEs], clinical laboratory tests, vital signs, and electrocardiograms [ECGs]), the remaining 5 subjects were randomized to receive vamorolone or placebo in a 4:1 ratio and dosed no earlier than 48 h after sentinel dosing. In Cohorts 2 to 5, and 7, subjects were administered vamorolone or placebo in a 3:1 ratio. Once Cohort 5 was completed and safety data had been reviewed, subjects in Cohort 6 were administered a single oral dose of 8.0 mg/kg vamorolone within 30 min of beginning a standard high fat/high calorie meal.
After completion of all scheduled safety follow-up visits for a given cohort, a Safety Review Committee (SRC), comprised of the Principal Investigator (PI), the Sponsor’s Medical Monitor, and the Sponsor’s pharmacokineticist, reviewed all available PK and safety data (AEs, physical examination findings, ECGs, vital signs, and clinical laboratory tests) in a blinded manner for the completed cohort prior to making a decision to escalate to the next higher dose level.
In the SAD part, overall, six subjects (11%) administered vamorolone experienced a total of 10 treatment-emergent adverse events (TEAEs); no subject in the placebo group experienced any TEAEs. There was no dose-related trend in the incidence or severity of TEAEs; the dose group with the highest number of subjects reporting TEAEs was the 0.1 mg/kg dose group (2 subjects, 33%), and the highest number of TEAEs (3 events) was reported by 1 subject in the 1.0 mg/kg vamorolone dose group. In the 0.3 and 3.0 mg/kg vamorolone fasted and the 8.0 mg/kg fed dose groups, 1 subject per group (17%) experienced TEAEs, and no subjects in the 8.0 mg/kg and 20 mg/kg, fasted, dose groups experienced any TEAEs. The most common TEAEs were dizziness and headache, each reported by 2 subjects overall (4%); all other TEAEs were reported by only 1 subject (2%) and included ear pain, nausea, non-cardiac chest pain, and blood bilirubin increased. Three subjects (6%) had TEAEs that were considered possibly related to treatment. Possibly related TEAEs included nausea (1 subject, 2%), dizziness (2 subjects, 4%), and headache (2 subjects, 4%). […] All other TEAEs were mild in severity.

[2] = tested on: osteocalcin; assay: Serum osteocalcin (bone formation biomarker), MAD; type: in vivo, human; settings: for Osteocalcin: mean±SEM
Procedure: (§1) All biomarkers were analyzed using standard immunoassays by PRA.
(§2) Pharmacological glucocorticoids cause bone side effects including osteopenia and bone fragility. Bone turnover markers bridged to later bone morbidities include osteocalcin for bone formation, and CTX1 (C-terminal telopeptide of collagen 1) for bone absorption. These biomarkers predict phenotypes of osteopenia and used in clinical trials to monitor bone side effects of treatments. […] (Supplemental Fig. 2). In the vamorolone Phase 1 trial, serum osteocalcin levels were assayed prior to dosing (Day 1 predose), 8 h after initial dose (Day 1), pre-dose on day 14 of daily dosing, 8 h after the day 14 (last) dose, and during recovery days 15 and 17.

[3] = tested on: CTX1 (C-terminal telopeptide of collagen 1); assay: Serum CTX1 (bone resorption biomarker), MAD; type: in vivo, human; settings: mean±SEM
Procedure: as §1, §2

[4] = tested on: growth and bone; set-up: method as in PMID 24014378; settings: 30 mg/kg/day, pre-clinical models; cited from earlier work
[5] = MAD 1.0 mg/kg, Day 1 (8 h after initial dose)
[6] = MAD 1.0 mg/kg, Day 1 (predose), baseline
[7] = MAD 1.0 mg/kg, Day 14 (8 h after last dose)
[8] = MAD 1.0 mg/kg, Day 14 (predose)
[9] = MAD 3.0 mg/kg, Day 1 (8 h after initial dose)
[10] = MAD 3.0 mg/kg, Day 1 (predose), baseline
[11] = MAD 3.0 mg/kg, Day 14 (8 h after last dose)
[12] = MAD 3.0 mg/kg, Day 14 (predose)
[13] = MAD 9.0 mg/kg, Day 1 (8 h after initial dose)
[14] = MAD 9.0 mg/kg, Day 1 (predose), baseline
[15] = MAD 9.0 mg/kg, Day 14 (8 h after last dose)
[16] = MAD 9.0 mg/kg, Day 14 (predose)
[17] = MAD 20.0 mg/kg, Day 1 (8 h after initial dose)
[18] = MAD 20.0 mg/kg, Day 1 (predose), baseline
[19] = MAD 20.0 mg/kg, Day 14 (8 h after last dose)
[20] = MAD 20.0 mg/kg, Day 14 (predose)
[21] = MAD 20.0 mg/kg, Day 15 recovery
[22] = MAD 20.0 mg/kg, Day 17 recovery

For `C[C@@H]1C[C@H]2[C@@H]3CCC4=CC(=O)C=C[C@]4(C)C3=CC[C@]2(C)[C@@]1(O)C(=O)CO` [vamorolone], the “subjects reporting TEAEs” value ([1]; SAD 0.1 mg/kg (2 subjects)) was 33%, the “subjects experiencing TEAEs” value ([1]; SAD 0.3 mg/kg fasted (1 subject)) was 17% and the “number of TEAEs” value ([1]; SAD 1.0 mg/kg, reported by 1 subject) was 3 events. The “subjects experiencing TEAEs” value ([1]; SAD 3.0 mg/kg fasted (1 subject)) was 17%, the “subjects experiencing TEAEs” value ([1]; SAD 8.0 mg/kg fasted) was “no subjects” and the “subjects experiencing TEAEs” value ([1]; SAD 8.0 mg/kg fed (1 subject)) was 17%. For the same compound, the “subjects experiencing TEAEs” value ([1]; SAD 20 mg/kg fasted) was “no subjects”, the “subjects experiencing TEAEs, overall” value ([1]; SAD, all dose groups (six subjects, 10 TEAEs)) was 11% and the Osteocalcin [2, 5] was 27.4 ± 9.3 ng/mL. For the same compound, the Osteocalcin [2, 6] was 33.2 ± 11.5 ng/mL, the Osteocalcin [2, 7] was 21.0 ± 7.8 ng/mL and the Osteocalcin [2, 8] was 30.3 ± 9.7 ng/mL. For the same compound, the Osteocalcin ([2]; MAD 1.0 mg/kg, Day 15 recovery) was 28.8 ± 9.3 ng/mL, the Osteocalcin ([2]; MAD 1.0 mg/kg, Day 17 recovery) was 25.9 ± 8.0 ng/mL and the Osteocalcin [2, 9] was 13.6 ± 11.5 ng/mL. It also gave an Osteocalcin [2, 10] of 13.7 ± 11.6 ng/mL, an Osteocalcin [2, 11] of 13.0 ± 11.0 ng/mL and an Osteocalcin [2, 12] of 17.1 ± 13.3 ng/mL. It also gave an Osteocalcin ([2]; MAD 3.0 mg/kg, Day 15 recovery) of 16.1 ± 12.5 ng/mL, an Osteocalcin ([2]; MAD 3.0 mg/kg, Day 17 recovery) of 13.9 ± 9.5 ng/mL and an Osteocalcin [2, 13] of 20.4 ± 4.7 ng/mL. For the same compound, the Osteocalcin [2, 14] was 32.9 ± 8.6 ng/mL, the Osteocalcin [2, 15] was 18.7 ± 4.3 ng/mL and the Osteocalcin [2, 16] was 24.0 ± 6.4 ng/mL. For the same compound, the Osteocalcin ([2]; MAD 9.0 mg/kg, Day 15 recovery) was 26.7 ± 5.2 ng/mL, the Osteocalcin ([2]; MAD 9.0 mg/kg, Day 17 recovery) was 33.5 ± 7.2 ng/mL and the Osteocalcin [2, 17] was 20.2 ± 4.6 ng/mL. The Osteocalcin [2, 18] was 31.5 ± 6.7 ng/mL, the Osteocalcin [2, 19] was 17.0 ± 3.7 ng/mL and the Osteocalcin [2, 20] was 32.8 ± 7.6 ng/mL. For the same compound, the Osteocalcin [2, 21] was 27.8 ± 5.9 ng/mL, the Osteocalcin [2, 22] was 34.6 ± 6.1 ng/mL and the “osteocalcin and CTX1 vs placebo” value ([2]; any MAD dose group, through 20 mg/kg/day) was “no significant changes”. For the same compound, the CTX1 [3, 5] was 0.22 ± 0.02 ng/mL, the CTX1 [3, 6] was 0.50 ± 0.11 ng/mL and the CTX1 [3, 7] was 0.22 ± 0.01 ng/mL. It also gave a CTX1 [3, 8] of 0.58 ± 0.12 ng/mL, a CTX1 ([3]; MAD 1.0 mg/kg, Day 15 recovery) of 0.68 ± 0.16 ng/mL and a CTX1 ([3]; MAD 1.0 mg/kg, Day 17 recovery) of 0.55 ± 0.09 ng/mL. The CTX1 [3, 9] was 0.18 ± 0.00 ng/mL, the CTX1 [3, 10] was 0.31 ± 0.05 ng/mL and the CTX1 [3, 11] was 0.18 ± 0.00 ng/mL. For the same compound, the CTX1 [3, 12] was 0.48 ± 0.13 ng/mL, the CTX1 ([3]; MAD 3.0 mg/kg, Day 15 recovery) was 0.48 ± 0.10 ng/mL and the CTX1 ([3]; MAD 3.0 mg/kg, Day 17 recovery) was 0.46 ± 0.12 ng/mL. The CTX1 [3, 13] was 0.19 ± 0.006 ng/mL, the CTX1 [3, 14] was 0.59 ± 0.11 ng/mL and the CTX1 [3, 15] was 0.23 ± 0.03 ng/mL. It also gave a CTX1 [3, 16] of 0.73 ± 0.14 ng/mL, a CTX1 ([3]; MAD 9.0 mg/kg, Day 15 recovery) of 0.77 ± 0.13 ng/mL and a CTX1 ([3]; MAD 9.0 mg/kg, Day 17 recovery) of 0.60 ± 0.10 ng/mL. The CTX1 [3, 17] was 0.22 ± 0.02 ng/mL, the CTX1 [3, 18] was 0.70 ± 0.14 ng/mL and the CTX1 [3, 19] was 0.29 ± 0.06 ng/mL. It also gave a CTX1 [3, 20] of 0.88 ± 0.12 ng/mL, a CTX1 [3, 21] of 0.92 ± 0.14 ng/mL and a CTX1 [3, 22] of 0.76 ± 0.10 ng/mL. The “severe stunting of growth and osteopenia” value [4] was “did not”.
